Results reported in PubChem BioAssay (NCI).
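Results reflect a 48-hour exposure of cells in 96-well plates to compound at five concentrations. GI50 marks 50% less growth. The concentration for full growth arrest is given as TGI.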

How the values were obtained:
Test in all cases: NCI tumour cell line growth inhibition, 48 h
[1] = system: DMS 273 small cell lung
[2] = system: LXFL 529 NSCLC
[3] = system: RXF-631 renal
[4] = system: KM20L2 colon
[5] = system: DMS 114 small cell lung
[6] = system: SNB-78 CNS
[7] = system: M19-MEL melanoma
[8] = system: XF 498 CNS
[9] = system: MDA-N
[10] = system: P388/ADR leukemia
[11] = system: P388 leukemia
[12] = system: SN12K1 renal

| Structure (SMILES) | TGI [1] | TGI [2] | TGI [3] | TGI [4] | TGI [5] | TGI [6] | TGI [7] | TGI [8] | TGI [9] | other results |
| --- | --- | --- | --- | --- | --- | --- | --- | --- | --- | --- |
| NC1=NN(c2ccccc2)C(=O)C1C(=O)C(=O)NC1C2CC3CC(C2)CC1C3 (stereo unspecified) | > 100 µM | > 100 µM | > 100 µM | > 100 µM | > 100 µM | > 100 µM | > 100 µM |  |  |  |
| O=S1Cc2ccccc2CS1 (stereo unspecified) | 29.8 µM | 28.7 µM | > 100 µM | > 100 µM |  | 36.7 µM | 33.7 µM | 32.6 µM |  |  |
| C=CCOC1=C2CC[C@H](O)[C@@]2(C)CCC1=O | > 100 µM | > 100 µM |  | > 100 µM | > 100 µM | > 100 µM | > 100 µM |  |  |  |
| Cc1ccc(NC(=O)C2C(=O)C(=O)N(c3ccc(C)cc3)C2=O)cc1 (stereo unspecified) |  | > 100 µM |  | > 100 µM | > 100 µM | > 100 µM | > 100 µM |  |  |  |
| COC(=O)C(=C\Sc1ccccc1)/C=C/C(=O)OC(C)(C)C | 24.5 µM | 13.5 µM |  | 31.1 µM | 25.8 µM | 31.9 µM | 23.9 µM | 28.3 µM |  |  |
| CCOC(=O)NC(=O)c1cn(CCCCCCCCCCC(=O)N2CCN(CCn3cc(C(=O)NC(=O)OCC)c(=O)[nH]c3=O)CC2)c(=O)[nH]c1=O | > 100 µM | > 100 µM | > 100 µM | > 100 µM | > 100 µM | > 100 µM | > 100 µM | > 100 µM |  |  |
| CC(/C=C/C=C/C=C/C=C/C=C/C(O)=C1/C(=O)C(CCC(=O)O)N(C)C1=O)=C\C(C)C(OC1CC(O)C(O)C(C)O1)C(C)C (stereo unspecified) |  |  |  |  |  |  |  |  | 12.7 µM |  |
| Nc1ccccc1S(=O)c1ccccc1 (stereo unspecified) | > 100 µM | > 100 µM |  | > 100 µM | > 100 µM |  | > 100 µM | > 100 µM |  |  |
| CCOC(=O)/C(=C/c1cc(OC)ccc1OC)CC(=O)O | > 100 µM | > 100 µM | > 100 µM | > 100 µM | > 100 µM | > 100 µM | > 100 µM | > 56.7 µM |  |  |
| CC1C(=O)CCC1C(Sc1ccccc1)(Sc1ccccc1)Sc1ccccc1 (stereo unspecified) | > 100 µM | 77.9 µM | > 100 µM |  | 49.6 µM | > 100 µM | > 100 µM | 80.9 µM |  |  |
| N#CC(NC12CC3CC(CC(C3)C1)C2)c1ccccc1 (stereo unspecified) |  |  |  |  |  |  |  |  | > 100 µM |  |
| COc1ccccc1/C=C1\CCC(CN(C)C)C1=O (stereo unspecified) | 20.5 µM |  |  | 16.4 µM | 7.58 µM | 29.2 µM | 7.46 µM | 32.6 µM | 26 µM | TGI [10]: 2.75 µM; TGI [11]: 2.83 µM; TGI [12]: 4.4 µM |
| CCOC(=O)CC(=O)N(c1ccc(OC)cc1)C(C(=O)OC)c1ccccc1 (stereo unspecified) |  |  |  |  |  |  |  |  | > 100 µM |  |
| COC(=O)C1C(=O)O[C@@H](c2ccc(OC)cc2)C1C(=O)OC (stereo partly specified) | > 100 µM | > 100 µM |  | > 100 µM | > 100 µM |  | > 100 µM | > 100 µM |  |  |
| O=c1oc2c(Br)c(O)c(Br)cc2c2ccccc12 |  |  |  |  |  |  |  |  | > 100 µM |  |
| Nc1ccn(C2OC(CO[P+](=O)OC3C(CO[P+](=O)OC4C(CO[P+](=O)OC5C(CO[P+](=O)OC6C(CO[P+](=O)OC7C(CO[P+](=O)OC8C(CO[P+](=O)OC9C(CO[P+](=O)OC%10C(CO[P+](=O)OC%11C(CO)OC(n%12ccc(N)nc%12=O)C%11(F)F)OC(n%11ccc(N)nc%11=O)C%10(F)F)OC(n%10ccc(N)nc%10=O)C9(F)F)OC(n9ccc(N)nc9=O)C8(F)F)OC(n8ccc(N)nc8=O)C7(F)F)OC(n7ccc(N)nc7=O)C6(F)F)OC(n6ccc(N)nc6=O)C5(F)F)OC(n5ccc(N)nc5=O)C4(F)F)OC(n4ccc(N)nc4=O)C3(F)F)C(O)C2(F)F)c(=O)n1 (stereo unspecified) |  |  |  |  |  |  |  |  | > 100 µM |  |
| Oc1ccc(Cl)cc1Cc1cc(Cl)cc(Cc2cc(Cl)ccc2O)c1O |  |  |  |  |  |  |  |  | 8.31 µM |  |
| CC(=O)N(/N=C\c1ccc([N+](=O)[O-])cc1)c1ccccc1 | > 100 µM |  | > 100 µM | > 100 µM | > 100 µM | > 100 µM | > 100 µM | > 100 µM |  |  |
| NC(Cc1cc(Br)c(O)c(Br)c1)C(=O)O (stereo unspecified) |  |  |  |  |  |  |  |  | > 100 µM |  |
| CC(=O)c1cc2c3c(c1)c1cc4c(cc1c(=O)n3CC2)OCO4 | > 100 µM | > 100 µM | > 100 µM | > 100 µM | > 100 µM | > 100 µM | > 100 µM | > 100 µM |  |  |
| CCN(CC)CC(O)CNc1ccc(NCC(O)CCl)c2c1C(=O)c1ccccc1C2=O (stereo unspecified) | 13.6 µM | 15.8 µM |  | 18.5 µM |  | 22.8 µM | 22.1 µM | 26.9 µM | 19.7 µM |  |
| O=C1C(=O)c2ccccc2C=C1[N+](=O)[O-] |  |  |  |  |  |  |  |  | 39.2 µM |  |
| [Ce+3].[Cl-].[O-]/N=C(\c1ccccc1)c1ccccn1.[O-]/N=C(\c1ccccc1)c1ccccn1.[O-]/N=C(\c1ccccc1)c1ccccn1 | > 100 µM | > 100 µM |  | > 100 µM | 85 µM |  | > 100 µM |  |  | GI50 [1]: 31.9 µM; GI50 [2]: 44.4 µM; GI50 [4]: > 100 µM; GI50 [5]: 28.3 µM; GI50 [7]: 35.8 µM |
| COC(=O)C1C2CC3C(OC(=O)C31)C2I (stereo unspecified) | > 100 µM |  |  | > 100 µM | > 100 µM | > 100 µM | > 100 µM |  |  |  |
| CC(C)Cc1ccc(C(C)/C=C2\CCC(CN3CCOCC3)C2=O)cc1 (stereo unspecified) |  | 4.09 µM | 41.2 µM | 31.5 µM | 42.4 µM | > 72.8 µM | 28.8 µM | 30 µM | 24.7 µM |  |
| COc1ccc(C2Cc3cc(OC)c(OC)c(OC)c3C2=O)cc1 (stereo unspecified) | > 100 µM |  |  | > 100 µM | > 100 µM | > 100 µM | > 100 µM |  |  |  |
| CCC[CH2][Sn]([CH2]CCC)([O]C(=O)c1cc(OC)c(OC)c(OC)c1)[O]C(=O)c1cc(OC)c(OC)c(OC)c1 | 2.95 µM | 0.536 µM | 1.83 µM | 3.3 µM | 1.54 µM | 1.58 µM | 2.02 µM |  |  | GI50 [1]: 1.35 µM; GI50 [2]: 0.215 µM; GI50 [3]: 0.53 µM; GI50 [4]: 1.8 µM; GI50 [5]: 0.404 µM; GI50 [6]: 0.453 µM; GI50 [7]: 0.749 µM |
| O=[n+]1cnn([O-])c2ccccc21 |  |  |  |  |  |  |  |  | 44.2 µM |  |
| OCC1OC(n2ccc3cnccc32)CC1O (stereo unspecified) | > 100 µM | > 100 µM |  |  | > 100 µM | > 100 µM | > 100 µM |  |  |  |
| c1ccc2c(c1)nnn1c3cnccc3nc21 | 36 µM | > 100 µM |  | > 100 µM | 69.5 µM | > 100 µM | > 100 µM |  |  |  |
